Data from patent US20230102309A1, “TYROSINE KINASE INHIBITOR CONJUGATES” (Ascendis Pharma Oncology Division A/S, priority 2019, published 2023).
Marks after values point to notes of the source that are not given here.

What was measured:
MC-38 tumor cells = assay: In vivo anti-tumor efficacy and combination efficacy with anti-PD1, bilateral MC-38 tumors; set-up: species or system C57BL/6 mice; conditions: Axitinib 25 mg/kg oral twice daily, antibodies 10 mg/kg IP; for Absolute tumor volume of left flank tumors, mean: left (not injected) tumor, hydrogels 50 μL IT into right tumor once Day 0 (7a 378, 8a 136, 8b 47 μg eq. axitinib); for Absolute tumor volume of right flank tumors, mean: right (IT-treated) tumor, hydrogels 50 μL IT once Day 0 (7a 378, 8a 136, 8b 47 μg eq. axitinib)
Description: The study was conducted in female C57BL/6 mice with an age of 6-8 weeks at the day of tumor inoculation. Mice were implanted with 1×10^6 MC-38 tumor cells into the left and right flanks. When right flank tumors were grown to a mean tumor volume of ˜104 mm^3, mice were randomized into treatment cohorts. For animals that received intratumoral injections, the right tumor was selected for treatment.
(§1) Following treatment initiation, anti-tumor efficacy was assessed by determination of tumor volumes at various time points from tumor size measurements with a caliper. Tumor volumes were calculated according to the formula: […]
(§2) where L is the length of the tumor and W the width (both in mm).

MC-38/C11G tumor cells = assay: Anti-tumor efficacy within the in vivo PK study; set-up: species or system C57BL/6 mice; conditions: Axitinib 3 mg/kg oral twice a day for 14 days, 9c single IT 50 μL
Description: (§3) The study was conducted in female C57BL/6 mice with an age of 6-8 weeks at the day of tumor inoculation. Mice were implanted with 1×10^6 of MC-38/C11G tumor cells into the right flank.
(§4) When tumors were grown to a mean tumor volume of ˜94 mm^3, mice were randomized into treatment cohorts (day 0). Following randomization, animals received either a single intratumoral injection of hydrogel 1 or hydrogel 9c as a single intratumoral dose in an injection volume of 50 μL, or with orally administered Axitinib suspended in 0.5% carboxymethylcellulose at 3 mg/kg in a 100 μl dose volume twice a day for 14 days. Hydrogels were administered as suspensions in pH 5.5 20 mM sodium succinate, 77 g/l trehalose dihydrate, 0.2% Pluronic F-68 buffer.
as §1, §2

[1] = Axitinib concentration in plasma samples; assay type: in vivo, C57BL/6 mice; conditions: female, C57BL/6, mouse, 9c single IT 50 μL (n=4), Axitinib 3 mg/kg oral (n=3), LLOQ 50.0 pg/mL
Description: as §3, §4
After 0.5, 1, 4 12, and 24 hours following treatment, 4 mice from the hydrogel 9c and Axitinib treated groups were sacrificed and terminal blood was collected in EDTA. Plasma was prepared after blood withdrawal. After 72 hours following treatment, 4 mice from the hydrogel 9c treated group were sacrificed and tumors were excised and snap frozen. Plasma samples underwent further processing by solid-phase extraction prior to Axitinib concentration determination by LCMS/MS.
All solvents (UPLC grade) as well as formic acid (ULC/MS quality) were purchased from Biosolve BV, Valkenswaard, The Netherlands. Axitinib concentrations in plasma were determined after solid phase extraction via liquid chromatography separation and detection by mass spectrometry (LCMS). As internal standard [^13C, D3]-axitinib was used. LCMS analysis was carried out by using an Agilent Infinity ultra high performance liquid chromatography (UHPLC) system coupled to an AbSciex 6500+ QTrap triple quadrupole mass spectrometer (QQQ) via an ESI probe. Chromatography was performed on a C18 analytical UHPLC column (YMC-Triart, 2.1×50 mm, 1.9 μm particle). Water containing 0.1% formic acid (v/v) was used as mobile phase A and acetonitrile with 0.1% formic acid as mobile phase B. The gradient system comprised a linear increase from 15% B to 30% B in 2.7 min. […]

concentration at 0.5 h ([1]; 0.5 h): 101 ng/mL
concentration at 1 h ([1]; 1 h): 76.8 ng/mL
concentration at 12 h ([1]; 12 h): 0.797 ng/mL
Compound: CNC(=O)c1ccccc1Sc1ccc2c(/C=C/c3ccccn3)n[nH]c2c1 [Axitinib, axitinib]
Absolute tumor volume of left flank tumors, mean (MC-38 tumor cells; day 0 post-treatment): 112.18 mm^3
Absolute tumor volume of right flank tumors, mean (MC-38 tumor cells; day 0 post-treatment): 104.22 mm^3
Absolute tumor volume of left flank tumors, mean (MC-38 tumor cells; day 3 post-treatment): 321.44 mm^3
Absolute tumor volume of right flank tumors, mean (MC-38 tumor cells; day 3 post-treatment): 304.55 mm^3
Absolute tumor volume of left flank tumors, mean (MC-38 tumor cells; day 5 post-treatment): 432.85 mm^3
Absolute tumor volume of right flank tumors, mean (MC-38 tumor cells; day 5 post-treatment): 419.99 mm^3
Absolute tumor volume of left flank tumors, mean (MC-38 tumor cells; day 7 post-treatment): 601.11 mm^3
Absolute tumor volume of right flank tumors, mean (MC-38 tumor cells; day 7 post-treatment): 543.06 mm^3
Absolute tumor volume of left flank tumors, mean (MC-38 tumor cells; day 10 post-treatment): 741.81† mm^3
Absolute tumor volume of right flank tumors, mean (MC-38 tumor cells; day 10 post-treatment): 763.99 mm^3
Absolute tumor volume of left flank tumors, mean (MC-38 tumor cells; day 12 post-treatment): 967.56†, †† mm^3
Absolute tumor volume of right flank tumors, mean (MC-38 tumor cells; day 12 post-treatment): 994.16† mm^3
Absolute tumor volume, mean (MC-38/C11G tumor cells; day 0 post-treatment): 93.862 mm^3
Absolute tumor volume, mean (MC-38/C11G tumor cells; day 4 post-treatment): 243.647 mm^3
Absolute tumor volume, mean (MC-38/C11G tumor cells; day 7 post-treatment): 418.787 mm^3
Absolute tumor volume, mean (MC-38/C11G tumor cells; day 11 post-treatment): 710.390 mm^3
Absolute tumor volume, mean (MC-38/C11G tumor cells; day 14 post-treatment): 977.619* mm^3
